Test results taken from ChEMBL document CHEMBL1132799, “Hybridization of non-sulfonylurea insulin secretagogue and thiazolidinedione-derived insulin sensitizer” (2000).

Key:
3T3-L1 [1] = assay: Insulin-sensitizing activity; triglyceride accumulation from insulin regulated differentiation of 3T3-L1 cells at 1 uM expressed as percent activity of pioglitazone; format: functional, Mus musculus
3T3-L1 [2] = assay: Compound was tested for insulin-sensitizing activity by measuring triglyceride accumulation from insulin regulated differentiation of 3T3-L1 cells at 10 uM expressed as percent activity of pioglitazone; format: functional, Mus musculus
[3] = Insulin-releasing activity in HIT-T15 cells in the presence of 16.7 mM glucose at 10 uM expressed as percent activity of nateglinide; format: functional, Cricetulus griseus

CCc1ccc(CCOc2ccc(C[C@@H](CC(=O)N3C[C@H]4CCCC[C@H]4C3)C(=O)O)cc2)nc1
Activity (3T3-L1 [1]): 4%
Activity (3T3-L1 [2]): 11%
Activity [3]: 105%

O=C(O)/C(=C\c1ccc(OCCCc2ccc(C(F)(F)F)cc2)cc1)CC(=O)N1C[C@H]2CCCC[C@H]2C1
Activity (3T3-L1 [1]): 4%
Activity [3]: 130%

CC(C)[C@H]1CC[C@H](C(=O)N[C@H](Cc2ccccc2)C(=O)O)CC1 [NATEGLINIDE]
Activity (3T3-L1 [1]): 6%
Activity (3T3-L1 [2]): 40%
Activity [3]: 100%

CCc1ccc(CCOc2ccc(CC3SC(=O)NC3=O)cc2)nc1 (stereo unspecified) [PIOGLITAZONE]
Activity (3T3-L1 [1]): 100%
Activity (3T3-L1 [2]): 100%
Activity [3]: 10%

CCc1ccc(CCOc2ccc(CC(NC(=O)[C@H]3CC[C@H](C(C)C)CC3)C(=O)O)cc2)nc1 (stereo partly specified)
Activity (3T3-L1 [1]): 2%
Activity (3T3-L1 [2]): 30%
Activity [3]: 33%

Cc1oc(-c2ccccc2)nc1CCOc1ccc(/C=C(\CC(=O)N2C[C@H]3CCCC[C@H]3C2)C(=O)O)cc1
Activity (3T3-L1 [1]): 103%
Activity [3]: 145%

Cc1oc(-c2ccncc2)nc1CCOc1ccc(/C=C(\CC(=O)N2C[C@H]3CCCC[C@H]3C2)C(=O)O)cc1
Activity (3T3-L1 [1]): 93%
Activity [3]: 49%

Cc1oc(-c2ccccc2)nc1CCOc1ccc(CC(CC(=O)N2C[C@H]3CCCC[C@H]3C2)C(=O)O)cc1 (stereo partly specified)
Activity (3T3-L1 [1]): 45%
Activity [3]: 85%

O=C(O)/C(=C\c1ccc(OCc2ccc(C(F)(F)F)cc2)cc1)CC(=O)N1C[C@H]2CCCC[C@H]2C1
Activity (3T3-L1 [1]): 15%
Activity [3]: 130%

O=C(O)/C(=C\c1ccc(OCCc2ccc(C(F)(F)F)cc2)cc1)CC(=O)N1C[C@H]2CCCC[C@H]2C1
Activity (3T3-L1 [1]): 5%
Activity [3]: 93%

Cc1oc(C2CCCCC2)nc1CCOc1ccc(/C=C(\CC(=O)N2C[C@H]3CCCC[C@H]3C2)C(=O)O)cc1
Activity (3T3-L1 [1]): 83%
Activity [3]: 93%

CCc1ccc(CCOc2ccc(C[C@H](CC(=O)N3C[C@H]4CCCC[C@H]4C3)C(=O)O)cc2)nc1
Activity (3T3-L1 [1]): 17%
Activity (3T3-L1 [2]): 55%
Activity [3]: 1%

CCc1ccc(CCOc2ccc(/C=C(\CC(=O)N3C[C@H]4CCCC[C@H]4C3)C(=O)O)cc2)nc1
Activity (3T3-L1 [1]): 20%
Activity (3T3-L1 [2]): 50%
Activity [3]: 136%

CN(CCOc1ccc(/C=C(\CC(=O)N2C[C@H]3CCCC[C@H]3C2)C(=O)O)cc1)c1nc2ccccc2o1
Activity (3T3-L1 [1]): 121%
Activity [3]: 60%

O=C(O)/C(=C/c1ccc(OCCn2ccc3ccccc32)cc1)CC(=O)N1C[C@H]2CCCC[C@H]2C1
Activity (3T3-L1 [1]): 9%
Activity [3]: 105%

CCc1ccc(CCOc2ccc(CC(CC(=O)N3C[C@H]4CCCC[C@H]4C3)C(=O)O)cc2)nc1 (stereo partly specified)
Activity (3T3-L1 [1]): 8%
Activity (3T3-L1 [2]): 30%
Activity [3]: 68%

CN(CCOc1ccc(/C=C(\CC(=O)N2C[C@H]3CCCC[C@H]3C2)C(=O)O)cc1)c1ccccn1
Activity (3T3-L1 [1]): 87%
Activity [3]: 60%
